Read-outs that look alike come from different tables or passages of the source.
Assays:
HiBiT-BRM = biological target: T1, HiBiT-BRM (Homo sapiens, UniProt P51531); test: HiBiT-BRM cell-based degradation assay (Nano-Glo HiBiT Lytic Detection)
T1 construct: expressed in transfected cells
Description: (§1) Procedure: A stable HeLa cell line expressing HiBiT-BRM was generated. On day 0, 5000 cells were seeded in 40 μL of media into each well of 384-well cell culture plates. […] Subsequently plates were incubated for 24 h in a standard tissue culture incubator and equilibrated at room temperature for 15 minutes. Nano-Glo HiBiT Lytic Detection System (Promega N3050) reagent was freshly prepared and 20 ul was added to each well. Upon addition of this LgBit-containing reagent, the HiBiT and LgBiT proteins associate to form the luminescent NanoBiT luciferase. The plates were shaken for 10 minutes at room temperature and the bioluminescence read using an EnVision plate reader (PerkinElmer).
(§2) The degradation % was calculated using the following formula: % degradation=100%−100%×(LumSample−LumLC)/(LumHC−LumLC). DMSO treated cells are employed as High Control (HC) and 2 μM of a known BRM/BRG1 degrader standard treated cells are employed as Low Control (LC).

HiBit-BRG1 = biological target: T2, HiBit-BRG1 (Homo sapiens, UniProt P51532); test: HiBit-BRG1 cell-based degradation assay (Nano-Glo HiBiT Lytic Detection)
T2 construct: expressed in transfected cells
Description: as §1
For measurement of BRG1 degradation, a stable HeLa cell line expressing HiBit-BRG1 and LgBit was generated. The same protocol as above was then followed.
as §2

[1] = HeLa cells expressing HiBiT-BRM, 24 h
[2] = HeLa cells expressing HiBiT-BRM, 24 h; read-out: BRM HiBit Degradation IC50
[3] = HeLa cells expressing HiBit-BRG1 and LgBit, 24 h; read-out: BRG1 HiBit Degradation IC50
[4] = HeLa cells expressing HiBit-BRG1 and LgBit, 24 h; read-out: BRG1 HiBit Degradation Maximum (%)

T1 sequence (P51531 whole entry): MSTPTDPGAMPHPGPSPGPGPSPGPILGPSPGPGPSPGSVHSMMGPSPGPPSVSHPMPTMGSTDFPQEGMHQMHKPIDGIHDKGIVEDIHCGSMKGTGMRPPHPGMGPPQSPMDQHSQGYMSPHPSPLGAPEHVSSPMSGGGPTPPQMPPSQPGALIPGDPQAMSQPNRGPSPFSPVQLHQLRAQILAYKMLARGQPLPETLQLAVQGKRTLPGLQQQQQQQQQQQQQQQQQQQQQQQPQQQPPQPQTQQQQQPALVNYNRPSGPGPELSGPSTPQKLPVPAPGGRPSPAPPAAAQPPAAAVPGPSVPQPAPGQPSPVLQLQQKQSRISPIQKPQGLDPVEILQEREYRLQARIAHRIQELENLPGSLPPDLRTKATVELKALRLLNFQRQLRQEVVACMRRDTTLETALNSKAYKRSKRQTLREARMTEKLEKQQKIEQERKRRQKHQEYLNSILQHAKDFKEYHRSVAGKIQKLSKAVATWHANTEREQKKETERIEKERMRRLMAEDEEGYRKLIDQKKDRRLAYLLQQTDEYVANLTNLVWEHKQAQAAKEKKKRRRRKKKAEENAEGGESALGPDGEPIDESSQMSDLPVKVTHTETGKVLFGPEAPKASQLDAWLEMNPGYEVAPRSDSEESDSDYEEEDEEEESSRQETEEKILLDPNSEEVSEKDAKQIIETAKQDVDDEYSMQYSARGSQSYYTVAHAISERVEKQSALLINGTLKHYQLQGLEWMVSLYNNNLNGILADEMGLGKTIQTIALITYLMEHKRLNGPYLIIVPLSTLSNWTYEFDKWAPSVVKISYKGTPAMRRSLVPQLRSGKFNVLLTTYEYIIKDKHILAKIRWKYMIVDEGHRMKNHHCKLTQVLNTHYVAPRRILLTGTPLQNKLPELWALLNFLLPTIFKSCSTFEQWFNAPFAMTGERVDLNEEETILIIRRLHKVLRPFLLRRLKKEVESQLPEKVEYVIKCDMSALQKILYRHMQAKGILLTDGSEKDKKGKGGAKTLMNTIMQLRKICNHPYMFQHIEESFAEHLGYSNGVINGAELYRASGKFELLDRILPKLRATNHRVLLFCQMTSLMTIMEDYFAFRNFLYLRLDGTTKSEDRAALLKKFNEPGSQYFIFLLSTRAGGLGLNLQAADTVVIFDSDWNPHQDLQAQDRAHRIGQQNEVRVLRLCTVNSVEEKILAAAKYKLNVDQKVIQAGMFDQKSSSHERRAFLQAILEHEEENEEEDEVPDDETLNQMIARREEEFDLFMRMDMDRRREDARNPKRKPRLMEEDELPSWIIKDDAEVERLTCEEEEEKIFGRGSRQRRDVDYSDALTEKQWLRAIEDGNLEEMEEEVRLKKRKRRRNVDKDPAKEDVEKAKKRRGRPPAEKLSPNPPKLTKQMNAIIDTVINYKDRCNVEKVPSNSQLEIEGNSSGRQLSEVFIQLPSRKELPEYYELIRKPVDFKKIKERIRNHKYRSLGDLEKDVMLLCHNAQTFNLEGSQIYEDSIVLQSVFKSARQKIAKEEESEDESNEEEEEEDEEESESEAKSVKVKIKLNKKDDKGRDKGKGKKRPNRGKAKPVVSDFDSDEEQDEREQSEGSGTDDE
T2 sequence (P51532 whole entry): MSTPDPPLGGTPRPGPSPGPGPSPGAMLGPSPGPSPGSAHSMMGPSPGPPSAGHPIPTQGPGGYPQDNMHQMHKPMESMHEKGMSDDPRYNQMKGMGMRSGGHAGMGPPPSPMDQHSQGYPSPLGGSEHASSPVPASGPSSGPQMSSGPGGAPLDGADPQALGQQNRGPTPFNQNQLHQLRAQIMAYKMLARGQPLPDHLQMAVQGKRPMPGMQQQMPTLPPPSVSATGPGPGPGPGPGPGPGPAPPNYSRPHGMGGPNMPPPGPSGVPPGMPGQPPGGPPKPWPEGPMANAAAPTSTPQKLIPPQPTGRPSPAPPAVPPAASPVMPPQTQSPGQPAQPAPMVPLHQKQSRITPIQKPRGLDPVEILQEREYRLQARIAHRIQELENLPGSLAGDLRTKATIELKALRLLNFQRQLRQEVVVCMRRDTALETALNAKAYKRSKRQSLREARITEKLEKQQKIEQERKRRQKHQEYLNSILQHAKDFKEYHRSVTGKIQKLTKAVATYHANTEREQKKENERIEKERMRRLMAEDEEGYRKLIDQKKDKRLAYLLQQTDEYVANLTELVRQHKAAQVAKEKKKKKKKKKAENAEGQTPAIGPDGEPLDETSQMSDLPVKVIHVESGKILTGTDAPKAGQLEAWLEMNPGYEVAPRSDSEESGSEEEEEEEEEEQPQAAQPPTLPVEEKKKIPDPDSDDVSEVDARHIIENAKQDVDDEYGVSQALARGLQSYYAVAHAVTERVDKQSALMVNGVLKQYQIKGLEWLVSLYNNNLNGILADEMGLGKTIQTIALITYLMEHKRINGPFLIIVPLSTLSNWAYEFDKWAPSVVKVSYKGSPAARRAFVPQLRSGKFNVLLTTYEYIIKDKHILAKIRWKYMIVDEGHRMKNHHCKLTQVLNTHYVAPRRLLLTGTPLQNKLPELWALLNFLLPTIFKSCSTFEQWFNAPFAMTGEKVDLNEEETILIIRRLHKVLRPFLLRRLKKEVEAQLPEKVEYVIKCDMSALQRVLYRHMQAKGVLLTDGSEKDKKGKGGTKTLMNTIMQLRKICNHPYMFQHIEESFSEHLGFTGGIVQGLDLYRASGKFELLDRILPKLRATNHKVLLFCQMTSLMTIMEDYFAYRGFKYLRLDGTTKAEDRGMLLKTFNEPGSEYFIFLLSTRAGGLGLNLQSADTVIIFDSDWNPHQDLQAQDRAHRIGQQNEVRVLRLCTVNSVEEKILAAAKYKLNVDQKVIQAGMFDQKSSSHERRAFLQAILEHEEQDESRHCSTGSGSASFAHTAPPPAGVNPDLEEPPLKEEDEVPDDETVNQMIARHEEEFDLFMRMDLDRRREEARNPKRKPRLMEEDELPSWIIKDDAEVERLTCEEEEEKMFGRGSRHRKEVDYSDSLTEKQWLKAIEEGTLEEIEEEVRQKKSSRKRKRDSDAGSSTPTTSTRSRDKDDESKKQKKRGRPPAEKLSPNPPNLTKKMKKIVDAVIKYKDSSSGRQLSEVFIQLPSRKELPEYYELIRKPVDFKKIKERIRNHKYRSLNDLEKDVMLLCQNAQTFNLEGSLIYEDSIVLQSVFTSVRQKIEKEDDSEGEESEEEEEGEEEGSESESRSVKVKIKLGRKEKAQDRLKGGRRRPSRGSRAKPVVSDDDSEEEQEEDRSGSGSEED

DC50 (HiBiT-BRM; [2]) [µM]	DC50 (HiBit-BRG1; [3]) [µM]	Dmax (HiBit-BRG1; [4]) [%]	SMILES	BRM HiBit Degradation Maximum (%) (HiBiT-BRM; [1])	DC50 (HiBiT-BRM; read-out: BRM HiBit Degradation IC50; HeLa cells expressing HiBiT-BRM, 24 h) [µM]	DC50 (HiBit-BRG1; read-out: BRG1 HiBit Degradation IC50; HeLa cells expressing HiBit-BRG1 and LgBit, 24 h) [µM]
> 1	> 1	< 50	Nc1nnc(-c2ccccc2O)cc1OCCc1ccc(C(=O)NCCCCC(=O)NCc2ccc(S(=O)(=O)Nc3cccc4c(Cl)c[nH]c34)cc2)cc1 [Compound 15, 4-(2-((3-amino-6-(2-hydroxyphenyl)pyridazin-4-yl)oxy)ethyl)-N-(5-((4-(N-(3-chloro-1H-indol-7-yl)sulfamoyl)benzyl)amino)-5-oxopentyl)benzamide]	C (“C” indicates maximum degradation <50%)		
> 1	> 1	< 50	Nc1nnc(-c2ccccc2O)cc1OCCc1ccc(C(=O)NCCCC(=O)NCc2ccc(S(=O)(=O)Nc3cccc4c(Cl)c[nH]c34)cc2)cc1 [Compound 16, 4-[[4-(2-[[3-amino-6-(2-hydroxyphenyl)pyridazin-4-yl]oxy]ethyl)phenyl]formamido]-N-([4-[(3-chloro-1H-indol-7-yl)sulfamoyl]phenyl]methyl)butanamide]	C (“C” indicates maximum degradation <50%)		
> 1	> 1	< 50	Nc1nnc(-c2ccccc2O)cc1OCCc1ccc(C(=O)NCCC(=O)NCc2ccc(S(=O)(=O)Nc3cccc4c(Cl)c[nH]c34)cc2)cc1 [Compound 17, 3-[[4-(2-[[3-amino-6-(2-hydroxyphenyl)pyridazin-4-yl]oxy]ethyl)phenyl]formamido]-N-([4-[(3-chloro-1H-indol-7-yl)sulfamoyl]phenyl]methyl)propanamide]	C (“C” indicates maximum degradation <50%)		
> 1	> 1	< 50	Nc1nnc(-c2ccccc2O)cc1OCCc1ccc(C(=O)NCC(=O)NCc2ccc(S(=O)(=O)Nc3cccc4c(Cl)c[nH]c34)cc2)cc1 [Compound 18, 2-[[4-(2-[[3-amino-6-(2-hydroxyphenyl)pyridazin-4-yl]oxy]ethyl)phenyl]formamido]-N-([4-[(3-chloro-1H-indol-7-yl)sulfamoyl]phenyl]methyl)acetamide]	C (“C” indicates maximum degradation <50%)		
> 1	> 1	< 50	Nc1nnc(-c2ccccc2O)cc1OCCc1ccc(CNC(=O)C2CCN(CCOc3ccc4c(c3)C(=O)N(C3CCC(=O)NC3=O)C4=O)CC2)cc1 (centres unmarked) [Compound 19, N-(4-(2-((3-amino-6-(2-hydroxyphenyl)pyridazin-4-yl)oxy)ethyl)benzyl)-1-(2-((2-(2,6-dioxopiperidin-3-yl)-1,3-dioxoisoindolin-5-yl)oxy)ethyl)piperidine-4-carboxamide]	C (“C” indicates maximum degradation <50%)		
> 0.01	> 0.1	> 75	Cc1ncsc1-c1ccc(CNC(=O)[C@@H]2C[C@@H](O)CN2C(=O)[C@@H](NC(=O)CCCCCCCCCNC(=O)c2ccc(CCN(C)c3cc(-c4ccccc4O)nnc3N)cc2)C(C)(C)C)cc1 [Compound 20, (2S,4R)-1-[(2S)-2-(10-[[4-(2-[[3-amino-6-(2-hydroxyphenyl)pyridazin-4-yl](methyl)amino]ethyl)phenyl]formamido]decanamido)-3,3-dimethylbutanoyl]-4-hydroxy-N-[[4-(4-methyl-1,3-thiazol-5-yl)phenyl]methyl]pyrrolidine-2-carboxamide]	A (“A” indicates maximum degradation ≥75%)		
> 0.1	> 1	< 50	Nc1nnc(-c2ccccc2O)cc1OCCc1ccc(C(=O)NCCCCCOc2cccc3c2C(=O)N(C2CCC(=O)NC2=O)C3=O)cc1 (centres unmarked) [Compound 21, 4-(2-[[3-amino-6-(2-hydroxyphenyl)pyridazin-4-yl]oxy]ethyl)-N-(5-[[2-(2,6-dioxopiperidin-3-yl)-1,3-dioxoisoindol-4-yl]oxy]pentyl)benzamide]	B (“B” indicates maximum degradation ≥50%)		
> 1	> 1	< 50	Nc1nnc(-c2ccccc2O)cc1OCCc1ccc(C(=O)NCCCCCCCCCCCC(=O)NCc2ccc(S(=O)(=O)Nc3cccc4c(Cl)c[nH]c34)cc2)cc1 [Compound 22, 12-[[4-(2-[[3-amino-6-(2-hydroxyphenyl)pyridazin-4-yl]oxy]ethyl)phenyl]formamido]-N-([4-[(3-chloro-1H-indol-7-yl)sulfamoyl]phenyl]methyl)dodecanamide]	C (“C” indicates maximum degradation <50%)		
> 1	> 1	< 50	Nc1nnc(-c2ccccc2O)cc1OCCc1ccc(C(=O)NCCCCCCCCC(=O)NCc2ccc(S(=O)(=O)Nc3cccc4c(Cl)c[nH]c34)cc2)cc1 [Compound 23, 9-[[4-(2-[[3-amino-6-(2-hydroxyphenyl)pyridazin-4-yl]oxy]ethyl)phenyl]formamido]-N-([4-[(3-chloro-1H-indol-7-yl)sulfamoyl]phenyl]methyl)nonanamide]	C (“C” indicates maximum degradation <50%)		

Continued, compound first:

SMILES	DC50 (HiBiT-BRM; [2]) [µM]	DC50 (HiBit-BRG1; [3]) [µM]	Dmax (HiBit-BRG1; [4]) [%]	BRM HiBit Degradation Maximum (%) (HiBiT-BRM; [1])	DC50 (HiBiT-BRM; read-out: BRM HiBit Degradation IC50; HeLa cells expressing HiBiT-BRM, 24 h) [µM]	DC50 (HiBit-BRG1; read-out: BRG1 HiBit Degradation IC50; HeLa cells expressing HiBit-BRG1 and LgBit, 24 h) [µM]
Nc1nnc(-c2ccccc2O)cc1OCCc1ccc(CNC(=O)NCCCOc2cccc3c2C(=O)N(C2CCC(=O)NC2=O)C3=O)cc1 (centres unmarked) [Compound 8, 1-(4-(2-((3-amino-6-(2-hydroxyphenyl)pyridazin-4-yl)oxy)ethyl)benzyl)-3-(3-((2-(2,6-dioxopiperidin-3-yl)-1,3-dioxoisoindolin-4-yl)oxy)propyl)urea]				B (“B” indicates maximum degradation ≥50%)	> 1	> 1
Nc1nnc(-c2ccccc2O)cc1OCCc1ccc(CNCCCCCOc2cccc3c2C(=O)N(C2CCC(=O)NC2=O)C3=O)cc1 (centres unmarked) [Compound 9, 4-[[5-([[4-(2-[[3-amino-6-(2-hydroxyphenyl)pyridazin-4-yl]oxy]ethyl)phenyl]methyl]amino)pentyl]oxy]-2-(2,6-dioxopiperidin-3-yl)isoindole-1,3-dione]	> 0.1	> 1		A (“A” indicates maximum degradation ≥75%)		
CN(Cc1ccc(CCOc2cc(-c3ccccc3O)nnc2N)cc1)C(=O)CCCCOc1cccc2c1C(=O)N(C1CCC(=O)NC1=O)C2=O (centres unmarked) [Compound 10, N-(4-(2-((3-amino-6-(2-hydroxyphenyl)pyridazin-4-yl)oxy)ethyl)benzyl)-5-((2-(2,6-dioxopiperidin-3-yl)-1,3-dioxoisoindolin-4-yl)oxy)-N-methylpentanamide]	> 1	> 1	< 50	C (“C” indicates maximum degradation <50%)		
Nc1nnc(-c2ccccc2O)cc1OCCc1ccc(C(=O)NCCCCCCCCCCC(=O)NCc2ccc(S(=O)(=O)Nc3cccc4c(Cl)c[nH]c34)cc2)cc1 [Compound 11, 11-[[4-(2-[[3-amino-6-(2-hydroxyphenyl)pyridazin-4-yl]oxy]ethyl)phenyl]formamido]-N-([4-[(3-chloro-1H-indol-7-yl)sulfamoyl]phenyl]methyl)undecanamide]	> 1	> 1	< 50	C (“C” indicates maximum degradation <50%)		
Nc1nnc(-c2ccccc2O)cc1OCCc1ccc(C(=O)NCCCCCCCCCC(=O)NCc2ccc(S(=O)(=O)Nc3cccc4c(Cl)c[nH]c34)cc2)cc1 [Compound 12, 10-[[4-(2-[[3-amino-6-(2-hydroxyphenyl)pyridazin-4-yl]oxy]ethyl)phenyl]formamido]-N-([4-[(3-chloro-1H-indol-7-yl)sulfamoyl]phenyl]methyl)decanamide]	> 1	> 1	< 50	C (“C” indicates maximum degradation <50%)		
Nc1nnc(-c2ccccc2O)cc1OCCc1ccc(C(=O)NCCCCCCC(=O)NCc2ccc(S(=O)(=O)Nc3cccc4c(Cl)c[nH]c34)cc2)cc1 [Compound 13, 7-[[4-(2-[[3-amino-6-(2-hydroxyphenyl)pyridazin-4-yl]oxy]ethyl)phenyl]formamido]-N-([4-[(3-chloro-1H-indol-7-yl)sulfamoyl]phenyl]methyl)heptanamide]	> 1	> 1	< 50	C (“C” indicates maximum degradation <50%)		
Nc1nnc(-c2ccccc2O)cc1OCCc1ccc(C(=O)NCCCCCC(=O)NCc2ccc(S(=O)(=O)Nc3cccc4c(Cl)c[nH]c34)cc2)cc1 [Compound 14, 6-[[4-(2-[[3-amino-6-(2-hydroxyphenyl)pyridazin-4-yl]oxy]ethyl)phenyl]formamido]-N-([4-[(3-chloro-1H-indol-7-yl)sulfamoyl]phenyl]methyl)hexanamide]	> 1	> 1	< 50	C (“C” indicates maximum degradation <50%)		

Source: patent US20230150974A1 (Foghorn Therapeutics Inc., priority 2020, published 2023)
